Experimental data reported in PubChem BioAssay (NCI).
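Compound exposure: 48 hours, 5 concentrations, 96-well plates. GI50: concentration for 50% inhibition of growth. TGI: total growth inhibition.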

Tests used:
Assay in all cases: NCI tumour cell line growth inhibition, 48 h
786-0 renal = tested on: 786-0 renal
A498 renal = tested on: A498 renal
A549 NSCLC = tested on: A549 NSCLC
ACHN renal = tested on: ACHN renal
BT-549 breast = tested on: BT-549 breast
CAKI-1 renal = tested on: CAKI-1 renal
CCRF-CEM leukemia = tested on: CCRF-CEM leukemia
COLO 205 colon = tested on: COLO 205 colon
DU-145 prostate = tested on: DU-145 prostate
EKVX NSCLC = tested on: EKVX NSCLC
HCC-2998 colon = tested on: HCC-2998 colon
HCT-116 colon = tested on: HCT-116 colon
HCT-15 colon = tested on: HCT-15 colon
HL-60(TB) leukemia = tested on: HL-60(TB) leukemia
HOP-62 NSCLC = tested on: HOP-62 NSCLC
HOP-92 NSCLC = tested on: HOP-92 NSCLC
HS 578T breast = tested on: HS 578T breast
HT29 colon = tested on: HT29 colon
IGROV1 ovarian = tested on: IGROV1 ovarian
K-562 leukemia = tested on: K-562 leukemia
KM12 colon = tested on: KM12 colon
LOX IMVI melanoma = tested on: LOX IMVI melanoma
M14 melanoma = tested on: M14 melanoma
MALME-3M melanoma = tested on: MALME-3M melanoma
MCF7 breast = tested on: MCF7 breast
MDA-MB-231 breast = tested on: MDA-MB-231 breast
MDA-MB-435 = tested on: MDA-MB-435
MOLT-4 leukemia = tested on: MOLT-4 leukemia
NCI-H226 lung = tested on: NCI-H226 lung
NCI-H23 lung = tested on: NCI-H23 lung
NCI-H460 lung = tested on: NCI-H460 lung
NCI-H522 lung = tested on: NCI-H522 lung
NCI/ADR-RES ovarian = tested on: NCI/ADR-RES ovarian
OVCAR-3 ovarian = tested on: OVCAR-3 ovarian
OVCAR-4 ovarian = tested on: OVCAR-4 ovarian
OVCAR-5 ovarian = tested on: OVCAR-5 ovarian
OVCAR-8 ovarian = tested on: OVCAR-8 ovarian
PC-3 prostate = tested on: PC-3 prostate
RPMI-8226 leukemia = tested on: RPMI-8226 leukemia
RXF 393 renal = tested on: RXF 393 renal
SF-268 CNS = tested on: SF-268 CNS
SF-295 CNS = tested on: SF-295 CNS
SF-539 CNS = tested on: SF-539 CNS
SK-MEL-2 melanoma = tested on: SK-MEL-2 melanoma
SK-MEL-28 melanoma = tested on: SK-MEL-28 melanoma
SK-MEL-5 melanoma = tested on: SK-MEL-5 melanoma
SK-OV-3 ovarian = tested on: SK-OV-3 ovarian
SN12C renal = tested on: SN12C renal
SNB-19 CNS = tested on: SNB-19 CNS
SNB-75 CNS = tested on: SNB-75 CNS
SW-620 colon = tested on: SW-620 colon
TK-10 renal = tested on: TK-10 renal
U251 CNS = tested on: U251 CNS
UACC-257 melanoma = tested on: UACC-257 melanoma
UACC-62 melanoma = tested on: UACC-62 melanoma
UO-31 renal = tested on: UO-31 renal

## CC[C@H](C)[C@H](NC(=O)C12CC(NC)(C1)C2)C(=O)N(C)[C@H](C[C@@H](OC(C)=O)c1nc(C(=O)N[C@@H](Cc2ccccc2)C[C@H](C)C(=O)OC)cs1)C(C)C
786-0 renal
  GI50: 237 nM
  TGI: > 11700 nM
A498 renal
  GI50: 525 nM
  TGI: > 8000 nM
A549 NSCLC
  GI50: 1110 nM
  TGI: > 25000 nM
ACHN renal
  GI50: 1390 nM
  TGI: > 25000 nM
BT-549 breast
  GI50: 97.2 nM
  TGI: 1020 nM
CAKI-1 renal
  GI50: 6420 nM
  TGI: > 25000 nM
CCRF-CEM leukemia
  GI50: 221 nM
  TGI: 2410 nM
COLO 205 colon
  GI50: 189 nM
  TGI: 1560 nM
DU-145 prostate
  GI50: 199 nM
  TGI: 3020 nM
EKVX NSCLC
  GI50: 2130 nM
  TGI: > 25000 nM
HCC-2998 colon
  GI50: 349 nM
  TGI: > 25000 nM
HCT-116 colon
  GI50: 96.9 nM
HCT-15 colon
  GI50: 1110 nM
  TGI: > 17100 nM
HL-60(TB) leukemia
  GI50: 55.7 nM
  TGI: 163 nM
HOP-62 NSCLC
  GI50: 542 nM
  TGI: > 25000 nM
HOP-92 NSCLC
  GI50: 7170 nM
  TGI: > 25000 nM
HS 578T breast
  GI50: 234 nM
  TGI: 15100 nM
HT29 colon
  GI50: 138 nM
  TGI: 1330 nM
IGROV1 ovarian
  GI50: 181 nM
  TGI: > 25000 nM
K-562 leukemia
  GI50: 53.4 nM
  TGI: > 25000 nM
KM12 colon
  GI50: 179 nM
  TGI: > 17600 nM
LOX IMVI melanoma
  GI50: 209 nM
  TGI: > 25000 nM
M14 melanoma
  GI50: 237 nM
MALME-3M melanoma
  GI50: 329 nM
  TGI: > 25000 nM
MCF7 breast
  GI50: 43.9 nM
  TGI: > 25000 nM
MDA-MB-231 breast
  GI50: 576 nM
  TGI: > 25000 nM
MDA-MB-435
  GI50: 29.7 nM
  TGI: 250 nM
MOLT-4 leukemia
  GI50: 649 nM
  TGI: > 25000 nM
NCI-H226 lung
  GI50: 1710 nM
  TGI: > 25000 nM
NCI-H23 lung
  GI50: 790 nM
  TGI: > 25000 nM
NCI-H460 lung
  GI50: 282 nM
  TGI: > 25000 nM
NCI-H522 lung
  GI50: 34.6 nM
  TGI: 368 nM
NCI/ADR-RES ovarian
  GI50: > 25000 nM
  TGI: > 25000 nM
OVCAR-3 ovarian
  GI50: 55 nM
  TGI: 511 nM
OVCAR-4 ovarian
  GI50: 3830 nM
  TGI: > 25000 nM
OVCAR-5 ovarian
  GI50: 1520 nM
  TGI: > 25000 nM
OVCAR-8 ovarian
  GI50: 633 nM
  TGI: > 25000 nM
PC-3 prostate
  GI50: 208 nM
  TGI: > 25000 nM
RPMI-8226 leukemia
  GI50: 80.6 nM
  TGI: 5830 nM
RXF 393 renal
  GI50: 160 nM
  TGI: 1220 nM
SF-268 CNS
  GI50: 355 nM
  TGI: > 25000 nM
SF-295 CNS
  GI50: 401 nM
  TGI: 2170 nM
SF-539 CNS
  GI50: 421 nM
  TGI: 1500 nM
SK-MEL-2 melanoma
  GI50: 171 nM
SK-MEL-28 melanoma
  GI50: 2130 nM
  TGI: > 25000 nM
SK-MEL-5 melanoma
  GI50: 103 nM
  TGI: 999 nM
SK-OV-3 ovarian
  GI50: 786 nM
  TGI: > 25000 nM
SN12C renal
  GI50: 585 nM
  TGI: > 25000 nM
SNB-19 CNS
  GI50: 615 nM
  TGI: > 25000 nM
SNB-75 CNS
  GI50: 92.8 nM
  TGI: > 25000 nM
SW-620 colon
  GI50: 159 nM
  TGI: > 25000 nM
TK-10 renal
  GI50: 3700 nM
  TGI: > 25000 nM
U251 CNS
  GI50: 434 nM
  TGI: > 25000 nM
UACC-257 melanoma
  GI50: 19800 nM
  TGI: > 25000 nM
UACC-62 melanoma
  GI50: 84.2 nM
  TGI: > 25000 nM
UO-31 renal
  GI50: 1940 nM
  TGI: > 25000 nM
